# Results: PMC11189555, “Aryl amino acetamides prevent Plasmodium falciparum ring development via targeting the lipid-transfer protein PfSTART1” (Nature Communications, 2024)
# Read-outs that look alike come from different tables or passages of the source.
# System: PopE-F10 M-833 resistant clone (PfSTART1 N330K)
# Assay: Growth inhibition assay (72 h, LDH activity)
# Format: cell-based, Plasmodium falciparum
# Settings: for inhibition at 0.15625 µM: M-833 0.15625 uM
# Procedure: The drug was then removed, and parasites were allowed to recover. Another cycle of drug treatment (3 μM M-833) was then resumed. The resistant lines were cloned out by limiting dilution (diluting the culture into a 96-well plate to achieve an average of ~0.3 parasites per well), prior to growth inhibition assays and genomic DNA (gDNA) extraction (DNeasy Blood and Tissue kit (Qiagen)[18].
# Parasite growth assays with inhibitory compounds were performed as per[11] and are fully described in the Supplementary Information. […]
# Growth inhibition assays. Synchronised ring-stage parasites (0.3-0.6% parasitemia, 2% haematocrit) were grown for 72 h in a serial-dilution of the compound under […]
# and compound 4. Note that M-833 was first purchased from MolPort (MolPort -002-267-916) then made in-house at WEHI: the differences observed in EC50s across experiments are attributed to the different batches of M -833. For some experiments, 0, 0.25 or 2.5 mM of glucosamine (GlcN) was also added. Experiments were set up in technical duplicates or triplicates. Following a freeze -thaw cycle, lactate dehydrogenase (LDH) activity was assessed as an indicator of parasite growt h 5. 30 μL of parasite culture was incubated for 30 min in the dark with 75 μL Malstat mixture (0.1 M Tris pH 9.0, 20 g/L lactic acid, pH 7.5, 0.2% Triton-X100, 0.5 g/L acetylpyridine adenine dinucleotide (APAD, Sigma), 200 μg/mL nitroblue tetrazolium (NBT; Sigma), 1 μg/mL phenozine ethosulfate (PES; Sigma)). Absorbance was then measured at 650 nm, transformed using the formula below, plotted against the logarithm of the concentrations, and a non-linear regression (log(inhibitor) vs. response, variable slope) was calculated using GraphPad Prism to assess the half-inhibitory […]
# Growth inhibition % = (1 − average(sample)− average(uRBC)) ∗ 100 […]
# The DMSO samples were also used to assess growth of parasite in the presence of 0.25 and 2.5 mM GlcN (normalised by DMSO in 0 mM GlcN). […]
compound,measurement,setting,value
Cc1cc(Cl)c(S(=O)(=O)N2CCCC2)cc1OCC(=O)NC1CCCCC1 [M-833],inhibition at 0.15625 µM,"Plasmodium falciparum, Pop E-F10 replicate 1, read-out: % Inhibition",-16.5%
same,inhibition at 0.15625 µM,"Plasmodium falciparum, Pop E-F10 replicate 3, read-out: % Inhibition",-8.13%
same,inhibition at 0.3125 µM,"Plasmodium falciparum, M-833 0.3125 uM, Pop E-F10 replicate 1, read-out: % Inhibition",-13%
same,inhibition at 0.3125 µM,"Plasmodium falciparum, M-833 0.3125 uM, Pop E-F10 replicate 3, read-out: % Inhibition",-13.3%
same,inhibition at 0.625 µM,"Plasmodium falciparum, M-833 0.625 uM, Pop E-F10 replicate 1, read-out: % Inhibition",-17%
same,inhibition at 0.625 µM,"Plasmodium falciparum, M-833 0.625 uM, Pop E-F10 replicate 3, read-out: % Inhibition",-4.75%
same,inhibition at 1.25 µM,"Plasmodium falciparum, M-833 1.25 uM, Pop E-F10 replicate 1, read-out: % Inhibition",-5.92%
same,inhibition at 1.25 µM,"Plasmodium falciparum, M-833 1.25 uM, Pop E-F10 replicate 3, read-out: % Inhibition",-4.33%
same,inhibition at 2.5 µM,"Plasmodium falciparum, M-833 2.5 uM, Pop E-F10 replicate 1, read-out: % Inhibition",-1.55%
same,inhibition at 2.5 µM,"Plasmodium falciparum, M-833 2.5 uM, Pop E-F10 replicate 3, read-out: % Inhibition",-5.28%
same,inhibition at 5 µM,"Plasmodium falciparum, M-833 5 uM, Pop E-F10 replicate 1, read-out: % Inhibition",5.15%
same,inhibition at 5 µM,"Plasmodium falciparum, M-833 5 uM, Pop E-F10 replicate 3, read-out: % Inhibition",3.59%
same,inhibition at 10 µM,"Plasmodium falciparum, M-833 10 uM, Pop E-F10 replicate 1, read-out: % Inhibition",27.8%
same,inhibition at 10 µM,"Plasmodium falciparum, M-833 10 uM, Pop E-F10 replicate 3, read-out: % Inhibition",19.9%
same,inhibition at 0.0390625 µM,"Plasmodium falciparum, Pop E-F10 replicate 1, M-833 0.0390625 uM",-3%
same,inhibition at 0.078125 µM,"Plasmodium falciparum, Pop E-F10 replicate 1, M-833 0.078125 uM",-0.769%
same,inhibition at 0.15625 µM,"Plasmodium falciparum, Pop E-F10 replicate 1",-1.15%
same,inhibition at 0.3125 µM,"Plasmodium falciparum, Pop E-F10 replicate 1, M-833 0.3125 uM",-1.42%
same,inhibition at 0.625 µM,"Plasmodium falciparum, Pop E-F10 replicate 1, M-833 0.625 uM",-0.0475%
same,inhibition at 1.25 µM,"Plasmodium falciparum, Pop E-F10 replicate 1, M-833 1.25 uM",1.29%
same,inhibition at 2.5 µM,"Plasmodium falciparum, Pop E-F10 replicate 1, M-833 2.5 uM",3.54%
same,inhibition at 5 µM,"Plasmodium falciparum, Pop E-F10 replicate 1, M-833 5 uM",13.5%
same,inhibition at 10 µM,"Plasmodium falciparum, Pop E-F10 replicate 1, M-833 10 uM",32.5%
same,Normalised to DMSO,"Pop E-F10 replicate 1, M-833 0.0390625 uM",103
same,Normalised to DMSO,"Pop E-F10 replicate 1, M-833 0.078125 uM",100.769
same,Normalised to DMSO,"Pop E-F10 replicate 1, M-833 0.3125 uM",101.424
same,Normalised to DMSO,"Pop E-F10 replicate 1, M-833 0.625 uM",100.047
same,Normalised to DMSO,"Pop E-F10 replicate 1, M-833 1.25 uM",98.7091
same,Normalised to DMSO,"Pop E-F10 replicate 1, M-833 2.5 uM",96.4594
same,Normalised to DMSO,"Pop E-F10 replicate 1, M-833 5 uM",86.4832
same,Normalised to DMSO,"Pop E-F10 replicate 1, M-833 10 uM",67.4893
same,(av-uRBC) / (DMSO-uRBC) x100,"PopE-F10, 3.04832 nM, biological replicate 1",111.434
same,(av-uRBC) / (DMSO-uRBC) x100,"PopE-F10, 3.04832 nM, biological replicate 2",114.392
same,(av-uRBC) / (DMSO-uRBC) x100,"PopE-F10, 3.04832 nM, biological replicate 3",116.409
same,(av-uRBC) / (DMSO-uRBC) x100,"PopE-F10, 9.14495 nM, biological replicate 1",115.6
same,(av-uRBC) / (DMSO-uRBC) x100,"PopE-F10, 9.14495 nM, biological replicate 2",114.392
same,(av-uRBC) / (DMSO-uRBC) x100,"PopE-F10, 9.14495 nM, biological replicate 3",132.26
same,(av-uRBC) / (DMSO-uRBC) x100,"PopE-F10, 27.4348 nM, biological replicate 1",114.804
same,(av-uRBC) / (DMSO-uRBC) x100,"PopE-F10, 27.4348 nM, biological replicate 2",115.461
same,(av-uRBC) / (DMSO-uRBC) x100,"PopE-F10, 27.4348 nM, biological replicate 3",121.608
same,(av-uRBC) / (DMSO-uRBC) x100,"PopE-F10, 82.3045 nM, biological replicate 1",112.716
same,(av-uRBC) / (DMSO-uRBC) x100,"PopE-F10, 82.3045 nM, biological replicate 2",116.595
same,(av-uRBC) / (DMSO-uRBC) x100,"PopE-F10, 82.3045 nM, biological replicate 3",121.195
same,(av-uRBC) / (DMSO-uRBC) x100,"PopE-F10, 246.914 nM, biological replicate 1",110.71
same,(av-uRBC) / (DMSO-uRBC) x100,"PopE-F10, 246.914 nM, biological replicate 2",117.042
same,(av-uRBC) / (DMSO-uRBC) x100,"PopE-F10, 246.914 nM, biological replicate 3",120.187
same,(av-uRBC) / (DMSO-uRBC) x100,"PopE-F10, 740.741 nM, biological replicate 1",108.694
same,(av-uRBC) / (DMSO-uRBC) x100,"PopE-F10, 740.741 nM, biological replicate 2",116.419
same,(av-uRBC) / (DMSO-uRBC) x100,"PopE-F10, 740.741 nM, biological replicate 3",115.329
same,(av-uRBC) / (DMSO-uRBC) x100,"PopE-F10, 2222.22 nM, biological replicate 1",107.392
same,(av-uRBC) / (DMSO-uRBC) x100,"PopE-F10, 2222.22 nM, biological replicate 2",111.175
same,(av-uRBC) / (DMSO-uRBC) x100,"PopE-F10, 2222.22 nM, biological replicate 3",110.489
same,(av-uRBC) / (DMSO-uRBC) x100,"PopE-F10, 6666.67 nM, biological replicate 1",97.5292
same,(av-uRBC) / (DMSO-uRBC) x100,"PopE-F10, 6666.67 nM, biological replicate 2",97.5177
same,(av-uRBC) / (DMSO-uRBC) x100,"PopE-F10, 6666.67 nM, biological replicate 3",73.4437
same,(av-uRBC) / (DMSO-uRBC) x100,"PopE-F10, 20000 nM, biological replicate 1",52.2279
same,(av-uRBC) / (DMSO-uRBC) x100,"PopE-F10, 20000 nM, biological replicate 2",44.7285
same,(av-uRBC) / (DMSO-uRBC) x100,"PopE-F10, 20000 nM, biological replicate 3",18.154
same,Fold change compared to 3D7,"Supplementary Table 1, EC50 on PopE-F10 vs 3D7",> 128 fold
same,EC50,"Supplementary Table 1, PopE-F10 (N330K), 72 h",> 10 µM
